Measurements: patent publication US8829015B2 (Novartis AG, priority 2005, dated 2014)
Converted amounts (≈) assume the structure as drawn. Where a name gives a salt, the structure may show the parent alone.

Key:
[1] = Thermal properties by TGA and DSC; assay type: physicochemical
Text: Form A's basic thermal properties were studied by thermogravimetric analysis (TGA) and differential scanning calorimetry (DSC) and are as follows:

physchem [2] = conditions: aqueous buffer solution, pH 1, simulated gastric fluid, thermodynamic from solid
[3] = Hygroscopicity (water uptake); assay type: physicochemical; conditions: 25° C. up to 80% r.h.
[4] = Equilibration of free base forms with solvents, XRPD; assay type: physicochemical; conditions: thirteen solvents, one day, 25° C.
Text: The solid part was investigated by XRPD.

physchem [5] = conditions: tetrahydrofuran/water (1:1), 25 °C, aqueous with cosolvent or surfactant or cyclodextrin, thermodynamic from solid
[6] = Equilibration of hydrochloride forms A, B and C with solvents, XRPD; assay type: physicochemical
Text: Then the solutions were filtered and the solid part investigated by XRPD.

[7] = Form conversion on exposure to solvent vapor, air, moisture or room conditions; assay type: physicochemical; conditions: in the presence of ethanol
[8] = Equilibration of hydrochloride form B with solvents (approximate solubility by gravimetry, form by XRPD); conditions: for Solubility: equilibrated at least 20 hours
[9] = Solubility by gravimetric techniques at different temperatures, residue by XRPD
[10] = pH of 1% solution or suspension in water; assay type: physicochemical; conditions: 1% in water; listed as Hydrochloride monohydrate (form B)
[11] = Wetting with granulating solvent, XRPD; assay type: physicochemical; conditions: dried under vacuum
Text: The material is vortexed between each addition. Then the material is dried under vacuum to <2% or less and evaluated for form and degree of crystallinity by XRPD or DSC.

[12] = Stability studies on storage; assay type: physicochemical; conditions: storage at various relative humidities
[13] = Intrinsic dissolution rate (rotating disk); assay type: physicochemical; conditions: for Intrinsic dissolution rate: 37° C., 200 rpm
Method: Intrinsic Dissolution Rate (IDR): Dissolution rate measurements were performed at 37° C. using the rotating disk method (VanKell Instrument). A single rotation speed of 200 rpm was used. For IDR in 0.1N HCl, an 800 mL volume, and for IDR in water, a 200 mL volume were used. The solution was continuously pumped through a UV measuring cell and recycled to the dissolution vessel.
The measurements were carried out on a VanKel instrument using a Cary 100 photometer.

[14] = Compression with a hydraulic press, XRPD; assay type: physicochemical; conditions: 5 minutes at 10 tons, room temperature
[15] = 0.1N HCl, 50° C., after 24 hours

For Cc1cn(-c2cc(NC(=O)c3ccc(C)c(Nc4nccc(-c5cccnc5)n4)c3)cc(C(F)(F)F)c2)cn1 [Form A of the free base], the Decomposition temperature [1] was greater than 300 °C, the Solubility (physchem [2]) was greater than 200 µg/mL and the hygroscopicity [3] was “slightly hygroscopic”. For the same compound, the maximum water uptake [3] was “less than 2%”, the “form transition on equilibration” value [4] was “No form transitions occurred” and the Solubility (physchem [5]) was 1780 µg/mL (≈ 3.36 mM).
With Cc1cn(-c2cc(NC(=O)c3ccc(C)c(Nc4nccc(-c5cccnc5)n4)c3)cc(C(F)(F)F)c2)cn1 [Form B of the hydrochloride salt] the “form transition on equilibration” value ([6]; 10 different solvents (ethanol, methanol, water, ethanol/water 99:1, methanol/water 99:1 and 99.3:0.7, methanol/HCl 0.1N, diethylether, hexane, tetrahydrofuran), one day, 25° C.) was “No form transitions occurred”, the “form transition on equilibration” value ([6]; ethanol, 50° C., 2 days) was “transitioned to a mixture of forms A and B” and the form conversion [7] was “converts to form A”. For the same compound, the Solubility ([8]; Acetonitrile, 25° C.) was 0.3 mg/g, the Solubility ([8]; Acetonitrile, 50° C.) was 2.1 mg/g and the Solubility ([8]; Acetonitrile-water 1:1, 25° C.) was 10.3 mg/g. The Solubility ([8]; DMSO, 50° C.) was greater than 27.5 mg/g, the Solubility ([8]; Ethanol (96%), 25° C.) was 3.9 mg/g and the Solubility ([8]; Ethanol (96%), 50° C.) was 22.4 mg/g. It also gave a Solubility ([8]; Ethanol, 50° C.) of 26.5 mg/g, a Solubility ([8]; Ethanol-water 1:1, 50° C.) of 17.2 mg/g and a Solubility ([8]; Ethyl acetate, 25° C.) of 0.3 mg/g. The Solubility ([8]; Ethyl acetate, 50° C.) was 3.0 mg/g, the Solubility ([8]; Methanol, 25° C.) was 16.3 mg/g and the “Form (XRPD) after equilibration” value ([8]; Methanol, 50° C., at least 20 hours) was “Solvate (as wet cake - dries to B)”. The Solubility ([8]; Methanol, 50° C.) was greater than 27.5 mg/g, the Solubility ([8]; Propan-2-ol, 25° C.) was 1.5 mg/g and the Solubility ([8]; Propan-2-ol, 50° C.) was 4.8 mg/g. It also gave a Solubility ([8]; Tetrahydrofuran, 25° C.) of 5.8 mg/g, a Solubility ([8]; Tetrahydrofuran-water 1:1, 25° C.) of 12.2 mg/g and a Solubility ([8]; Toluene, 25° C.) of 1.3 mg/g. The Solubility ([8]; Toluene, 50° C.) was 5.6 mg/g, the Solubility ([9]; 0.0001N HCl, 25° C., after 24 hours) was 470 µg/mL and the Solubility ([9]; 0.0001N HCl, 50° C., after 24 hours) was 1320 µg/mL. It also gave a Solubility ([9]; 0.001N HCl, 25° C., after 24 hours) of 700 µg/mL, a Solubility ([9]; 0.001N HCl, 50° C., after 24 hours) of 1340 µg/mL and a Solubility ([9]; 0.01N HCl, 25° C., after 24 hours) of 690 µg/mL. It also gave a Solubility ([9]; 0.01N HCl, 50° C., after 24 hours) of 1440 µg/mL, a Solubility ([9]; 0.1N HCl, 25° C., after 24 hours) of 2360 µg/mL and a Solubility [9, 15] of 6620 µg/mL. For the same compound, the “XRPD (form of the solid)” value [9, 15] was “B + A”, the Solubility ([9]; Methanol, 25° C., after 24 hours) was 14370 µg/mL and the Solubility ([9]; Methanol, 50° C., after 24 hours) was 52110 µg/mL. The Solubility ([9]; Methanol/Water (95/5) v/v, 20° C., 10 minutes) was 13640 µg/mL, the Solubility ([9]; Methanol/Water (95/5) v/v, 20° C., 1 hour) was 13430 µg/mL and the Solubility ([9]; Methanol/Water (95/5) v/v, 20° C., 24 hours) was 13010 µg/mL. For the same compound, the Solubility ([9]; Methanol/Water (95/5) v/v, 45° C., 10 minutes) was 34490 µg/mL, the Solubility ([9]; Methanol/Water (95/5) v/v, 45° C., 1 hour) was 38180 µg/mL and the Solubility ([9]; Methanol/Water (95/5) v/v, 45° C., 24 hours) was 41700 µg/mL. For the same compound, the Solubility ([9]; Methanol/Water (95/5) v/v, −10° C., 10 minutes) was 9420 µg/mL, the Solubility ([9]; Methanol/Water (95/5) v/v, −10° C., 1 hour) was 6650 µg/mL and the Solubility ([9]; Methanol/Water (95/5) v/v, −10° C., 24 hours) was 4850 µg/mL. For the same compound, the Solubility ([9]; Methanol/Water (99.5/0.5) v/v, 20° C., 10 minutes) was 12900 µg/mL, the Solubility ([9]; Methanol/Water (99.5/0.5) v/v, 20° C., 1 hour) was 13780 µg/mL and the Solubility ([9]; Methanol/Water (99.5/0.5) v/v, 20° C., 24 hours) was 12210 µg/mL. The Solubility ([9]; Methanol/Water (99.5/0.5) v/v, 45° C., 10 minutes) was 33290 µg/mL, the Solubility ([9]; Methanol/Water (99.5/0.5) v/v, 45° C., 1 hour) was 39390 µg/mL and the Solubility ([9]; Methanol/Water (99.5/0.5) v/v, 45° C., 24 hours) was 40400 µg/mL. For the same compound, the Solubility ([9]; Methanol/Water (99.5/0.5) v/v, −10° C., 10 minutes) was 7620 µg/mL, the Solubility ([9]; Methanol/Water (99.5/0.5) v/v, −10° C., 1 hour) was 5630 µg/mL and the Solubility ([9]; Methanol/Water (99.5/0.5) v/v, −10° C., 24 hours) was 4000 µg/mL. The Solubility ([9]; Water, 25° C., after 24 hours) was 1280 µg/mL, the Solubility ([9]; Water, 50° C., after 24 hours) was 1400 µg/mL and the “pH of 1% solution or suspension in water” value [10] was 2.53. For the same compound, the “XRPD results after granulation” value ([11]; granulating solvent Ethanol) was “No change”, the “XRPD results after granulation” value ([11]; granulating solvent Water) was “No change” and the “form transition after storage” value [12] was “No form transitions were observed”. For the same compound, the Intrinsic dissolution rate ([13]; Water, listed as Hydrochloride monohydrate (form B)) was 0.0024 mg min^−1cm^−2, the “Intrinsic Dissolution Rate value” ([13]; dissolution medium HCl 0.0001 N) was 0.0010 mg/min/cm^2 and the “Intrinsic Dissolution Rate value” ([13]; dissolution medium HCl 0.001 N) was 0.0045 mg/min/cm^2. For the same compound, the “Intrinsic Dissolution Rate value” ([13]; dissolution medium HCl 0.01 N) was 0.0224 mg/min/cm^2, the “Intrinsic Dissolution Rate value” ([13]; dissolution medium HCl 0.1 N) was 0.1003 mg/min/cm^2 and the “Intrinsic Dissolution Rate value” ([13]; dissolution medium Water) was 0.0001 mg/min/cm^2. The Intrinsic dissolution rate ([13]; pH 1 (0.1 N HCl)) was 0.17 mg min^−1cm^−2 and the “change of crystalline modification (by XRPD) after compression” value [14] was “no change of crystalline modification”.
